# Source: ChEMBL document CHEMBL3046691, “Herbicidal pyridyl derivatives of aminomethylene-bisphosphonic acid inhibit plant glutamine synthetase” (J Agric Food Chem, 2004)
# Active and inactive are the calls of the source. The calls are words filed in the database; no cut-off is given here.
# How the values were obtained:
# Glutamine synthetase [1] = molecular target: T1, Glutamine synthetase (Oryza sativa, UniProt Q01HZ7); assay: Inhibition of Oryza sativa cv. Gigante vercellese (rice) glutamine synthetase assessed as inhibition of glutamine synthesis from glutamic acid after 15 min by biosynthetic assay; details: read-out: I50
# T1 sequence (Q01HZ7 whole entry): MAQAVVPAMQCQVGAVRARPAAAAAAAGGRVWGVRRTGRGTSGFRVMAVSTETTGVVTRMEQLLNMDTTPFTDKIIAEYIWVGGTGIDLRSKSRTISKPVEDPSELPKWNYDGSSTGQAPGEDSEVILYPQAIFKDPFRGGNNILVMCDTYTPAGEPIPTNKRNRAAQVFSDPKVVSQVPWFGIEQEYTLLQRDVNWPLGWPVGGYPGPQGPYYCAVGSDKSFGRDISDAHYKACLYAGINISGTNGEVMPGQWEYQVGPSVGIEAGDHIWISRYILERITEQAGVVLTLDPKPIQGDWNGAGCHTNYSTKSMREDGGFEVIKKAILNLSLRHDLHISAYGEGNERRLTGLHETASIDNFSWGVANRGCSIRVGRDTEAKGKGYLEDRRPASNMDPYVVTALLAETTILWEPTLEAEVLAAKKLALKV
# Glutamine synthetase [2] = molecular target: T1, Glutamine synthetase; assay: (§1) Inhibition of Oryza sativa cv. Gigante vercellese (rice) glutamine synthetase after 30 min by hemibiosynthetic assay; details: read-out: I50
# [3] = molecular target: T2, Glutamine synthetase (Oryza sativa) (UniProt Q01HZ7); assay: (§2) Inhibition of Oryza sativa cv. Gigante vercellese (rice) glutamine synthetase by transferase assay
# T2 sequence (whole entry): T1 sequence (Q01HZ7 whole entry)
# [4] = molecular target: T2, Glutamine synthetase (Oryza sativa); assay: Inhibition of Oryza sativa cv. Gigante vercellese (rice) glutamine synthetase assessed as inhibition of glutamine synthesis from glutamic acid at 1 mM after 15 min by biosynthetic assay; details: values are per cent of control
# [5] = molecular target: T2, Glutamine synthetase (Oryza sativa); assay: Inhibition of Oryza sativa cv. Gigante vercellese (rice) glutamine synthetase at 1 mM after 30 min by hemibiosynthetic assay; details: values are per cent of control
# [6] = molecular target: T2, Glutamine synthetase (Oryza sativa); assay: Inhibition of Oryza sativa cv. Gigante vercellese (rice) glutamine synthetase at 1 mM by transferase assay; details: values are per cent of control
# Glutamine synthetase [7] = molecular target: T1, Glutamine synthetase; assay: as §2; details: read-out: I50
# Oryza sativa [8] = assay: Effect on amino acid pool in Oryza sativa cv. Gigante vercellese (rice) cells assessed as aspartic acid content per gram freshweight of culture at 0.5 mM after 48 hr (reference value: 1.10 +/- 0.26 umol); format: functional
# Oryza sativa [9] = assay: Effect on amino acid pool in Oryza sativa cv. Gigante vercellese (rice) cells assessed as total amino acid content per gram fresh weight of culture at 0.5 mM after 48 hr (reference value: 24.65 +/- 0.97 umol); format: functional
# Oryza sativa [10] = assay: Effect on amino acid pool in Oryza sativa cv. Gigante vercellese (rice) cells assessed as glutamine content per gram fresh weight of culture at 0.5 mM after 48 hr (reference value: 4.24 +/- 0.35 umol); format: functional
# Oryza sativa [11] = assay: Effect on amino acid pool in Oryza sativa cv. Gigante vercellese (rice) cells assessed as serine content per gram freshweight of culture at 0.5 mM after 48 hr (reference value: 0.60 +/- 0.09 umol); format: functional
# Oryza sativa [12] = assay: Effect on amino acid pool in Oryza sativa cv. Gigante vercellese (rice) cells assessed as asparagine content per gram freshweight of culture at 0.5 mM after 48 hr (reference value: 3.18 +/- 0.25 umol); format: functional
# Oryza sativa [13] = assay: Effect on amino acid pool in Oryza sativa cv. Gigante vercellese (rice) cells assessed as glutamic acid content per gram freshweight of culture at 0.5 mM after 48 hr (reference value: 0.75 +/- 0.07 umol); format: functional
# [14] = molecular target: T2, Glutamine synthetase (Oryza sativa); assay: as §1
# [15] = molecular target: T2, Glutamine synthetase (Oryza sativa); assay: Reversible inhibition of Oryza sativa cv. Gigante vercellese (rice) glutamine synthetase assessed as inhibition of glutamine synthesis from glutamic acid at 10 uM after 50 min by biosynthetic assay
# [16] = molecular target: T2, Glutamine synthetase (Oryza sativa); assay: Reversible inhibition of Oryza sativa cv. Gigante vercellese (rice) glutamine synthetase assessed as inhibition of glutamine synthesis from glutamic acid at 20 uM after 50 min by biosynthetic assay
SMILES,I50 [3],I50 [14],IC50 (Glutamine synthetase [1]) [µM],IC50 (Glutamine synthetase [2]) [µM],residual activity [4] [%],residual activity [5] [%],residual activity [6] [%],IC50 (Glutamine synthetase [7]) [µM],Activity (Oryza sativa [8]) [umol/g fresh weight],Activity (Oryza sativa [9]) [umol/g fresh weight],Activity (Oryza sativa [10]) [umol/g fresh weight],Activity (Oryza sativa [11]) [umol/g fresh weight],Activity (Oryza sativa [12]) [umol/g fresh weight],Activity (Oryza sativa [13]) [µmol/g fresh weight],inhibition [15],inhibition [16]
O=P(O)(O)C(NCc1ccccc1)P(=O)(O)O,,,,,109,89.1,102,,,,,,,,,
Cc1cccc(NC(P(=O)(O)O)P(=O)(O)O)n1,,,,,114,74.4,25.9,,,,,,,,,
O=P(O)(O)C(NC1CCCCC1)P(=O)(O)O [(CYCLOHEXYLAMINO)METHYLENEDIPHOSPHONIC ACID],,,1110,461,50.5,32.7,46.1,915,,,,,,,,
O=P(O)(O)C(Nc1ccc(Cl)cn1)P(=O)(O)O,,,69,96,13.9,17.5,52.8,1040,,,,,,,,
O=P(O)(O)C(Nc1ccccn1)P(=O)(O)O,,,243,215,37.6,30.2,60.1,1040,,,,,,,,
O=P(O)(O)C(NCc1ccccn1)P(=O)(O)O,,,64,103,8.8,16.1,54.6,1130,1.66,26.94,3.25,1.53,0.63,4.78,,
O=P(O)(O)C(Nc1ccccc1)P(=O)(O)O,,,,,108,92,44.3,,,,,,,,,
CP(=O)(O)CC[C@H](N)C(=O)O [PHOSPHINOTHRICIN],,,44,49,2,9.9,25.7,172,,,,,,,inactive,
O=C(O)c1cccnc1NC(P(=O)(O)O)P(=O)(O)O [2-(DIPHOSPHONOMETHYLAMINO)NICOTINIC ACID],,,334,624,27.2,40.8,61,1.45,,,,,,,,
O=[N+]([O-])c1cccc(NC(P(=O)(O)O)P(=O)(O)O)c1 [(3-NITROPHENYLAMINO)METHYLENEDIPHOSPHONIC ACID],,,738,1620,97.6,101,95.6,1.99,,,,,,,,
O=P(O)(O)C(Nc1ncccn1)P(=O)(O)O,,,,,42.3,64.3,76.8,,,,,,,,,
"O=P(O)(O)C(Nc1cc(Cl)cc(Cl)c1)P(=O)(O)O [(3,5-DICHLOROPHENYLAMINO)METHYLENEDIPHOSPHONIC ACID]",,,33,88,3.1,13.1,38.1,0.396,0.57,28.61,2.72,1.26,0.49,3.19,,Active
O=P(O)(O)C(Nc1ccncc1)P(=O)(O)O,,,,,119,97.2,84.9,,1.21,32.64,4.79,2.22,1.14,4.24,,
Cc1ccccc1CNC(P(=O)(O)O)P(=O)(O)O,,,,,101,70.5,50.8,,,,,,,,,
NC(P(=O)(O)O)P(=O)(O)O,,,,,119,81.2,96.4,,,,,,,,,
Cc1ccc(NC(P(=O)(O)O)P(=O)(O)O)cc1 [(P-TOLYLAMINO)METHYLENEDIPHOSPHONIC ACID],inactive,,170,774,14.3,57.6,93.8,,0.76,22.91,2.95,0.6,0.61,2.97,,

# Second part, led by results:
I50 [3],I50 [14],SMILES,IC50 (Glutamine synthetase [1]) [µM],IC50 (Glutamine synthetase [2]) [µM],residual activity [4] [%],residual activity [5] [%],residual activity [6] [%],IC50 (Glutamine synthetase [7]) [µM],Activity (Oryza sativa [8]) [umol/g fresh weight],Activity (Oryza sativa [9]) [umol/g fresh weight],Activity (Oryza sativa [10]) [umol/g fresh weight],Activity (Oryza sativa [11]) [umol/g fresh weight],Activity (Oryza sativa [12]) [umol/g fresh weight],Activity (Oryza sativa [13]) [µmol/g fresh weight],inhibition [15],inhibition [16]
inactive,,O=P(O)(O)C(NCCc1ccc(O)cc1)P(=O)(O)O [(4-HYDROXYPHENETHYLAMINO)METHYLENEDIPHOSPHONIC ACID],4470,695,72.6,36.9,98.4,,,,,,,,,
inactive,inactive,O=C(O)c1cccc(NC(P(=O)(O)O)P(=O)(O)O)c1 [3-(DIPHOSPHONOMETHYLAMINO)BENZOIC ACID],1800,,62.5,99,104,,,,,,,,,
